One block for each molecule: values may come before it. Peptide text beside a SMILES is read from it. * marks the point of attachment. Benzoyl(4-SO2NH2) = NS(=O)(=O)c1ccc(C(=O)*)cc1
Tests used:
[1] = molecular target: wild-type hCAII protein (Homo sapiens, UniProt P00918); assay: colorimetric IC50 assay of NTMs and NTM-AAEIR peptides; type: biochemical; conditions: for Fold Enhancement (NTM IC50) / Fold Enhancement (NTM-AAEIR IC50): relative to NTM M64; for Fold Enhancement (NTM-AAEIR IC50): NTM on AAEIR
Description: The colorimetric assay used 300 nM of wild-type carbonic anhydrase incubated in 45 μL of 50 mM MOPS (pH 7.5), 33 mM Na2SO4, and 1 mM EDTA aliquoted into a 96-well, clear, flat-bottom plate. To each column of the plate, a 1/10 dilution series from 1 mM to 0.1 nM of each NTM was added and incubated at 25° C. for 10 minutes to reach binding equilibrium. […] The initial rate of hydrolysis was observed over the first 60 seconds. The slopes versus the concentration of NTM were put into a non-linear regression equation to determine the IC50 of the NTM to the carbonic anhydrase.

[2] = molecular target: human carbonic anhydrase II (hCAII) (Homo sapiens, UniProt P00918); assay: hCAII functional assay (pNP-OAc hydrolysis) with SABA-modified peptides; type: biochemical
Description: A functional assay for hCAII enzyme was set up. Carbonic anhydrase catalyzes the hydrolysis of 4-nitrophenyl acetate (4-NPA) to nitrophenol, which can be monitored by absorbance at 400 nm. The enzymatic carbonic anhydrase assay generally includes 0.2-1.0 μM enzyme and 10-500 μM 4-NPA in 20-200 μL in assay buffer. […] Metal chelating agents (EDTA or EGTA), salt (NaCl, sulfate), detergent (Tween or Triton), and organic additives (acetonitrile, DMSO) may be employed to facilitate enzyme stability and reagent solubility. For the assay, 1 μM human carbonic anhydrase II, 50 mM MOPS (pH 7.6), 33 mM disodium sulfate, and 1 mM EDTA. To generate NTM-modified peptides, azide-derivatized peptides (via azide-PEG-amine and carbodiimide coupling to C-terminus of peptide) were conjugated to DBCO-coupled beads. […] To evaluate P1 dependence of the binding reaction, multiple P1 residues has been tested.

[3] = molecular target: biotinylated peptides M64-P1-P2-ΔK-(PEG9)(PEG9)-K(Biotin); assay: bio-layer interferometry (BLI) of engineered binders; type: binding; conditions: M64 peptide, 22° C.
Description: Bio-layer interferometry (BLI) is an optical analytical and label-free method to directly measure kinetics between two biomolecules. In this technology, one biomolecule is immobilized on a surface in the form of a small tip, this tip is then dipped in a microplate containing the second biomolecule of interest. White light is directed down the tip to the tip surface where the binding is measured as a shift in wavelength that is caused as a result of the interference between incident and reflected light. More specifically, there are two surfaces at the tip, a reference layer and the experiment layer, the latter is where the biomolecules immobilize and bind. As the distance between these two layers increases due to biomolecules binding and immobilizing, the shift between incident and reflected wavelengths increases as caused by the light waves interfering at the two layers. Therefore, the size and the number of biomolecules that bind onto the surface is proportional to the shift measured. This shift is plotted against time to give a sensogram from which kon, koff and ultimately KD can be calculated.
All binding experiments were carried out on an 8-channel Gator Prime (Gator Bio) instrument. To measure the affinity of each binder-peptide pair, biotinylated peptides were immobilized on Streptavidin coated biosensor tips (Gator Bio), which were dipped in six binder concentrations and two controls. All binding assays were performed at 22° C. in 96 well polypropylene plates (Gator Bio) and carried out in triplicates with a well volume of 200 uL. Streptavidin coated biosensors were hydrated in the baseline buffer for 10 mins before each assay. All binding experiments used biotinylated peptides with the following sequence construct, M64-P1-P2-ΔK-(PEG9)(PEG9)-K(Biotin) and all peptides were diluted in the baseline buffer. Binders having sequences set forth in SEQ ID NO: 75-SEQ ID NO: 82 were tested. The binders originated from three different metalloenzyme scaffolds and were engineered according to the methods disclosed in Examples 4-6. […] All binders were serially diluted using the baseline buffer either by 2- or 3-fold. Baseline buffer consisted of 50 mM MOPS pH 7.5, 33 mM NaSO4, 1 mM EDTA and 0.1% Tween-20. The following protocol was used for each binding assay under shaker speed of 1000 rpm, which generated the best quality binding with minimal sensor to sensor variation and baseline drift (Table 14).
Between each binding assay, if biosensors were used more than once, the following protocol was used to regenerate the biosensor for subsequent binding assays (Table 15). Regeneration buffer consisted of […] and 10 mM Glycine pH 2.0.
Analysis of binding curves. […] Binding curves were aligned to the association step and subtracted using the reference curve. Each set of processed curves were then fit locally and inspected. The residual plot, R2 and Chi2 were examined to be <0.1 nm, […] and <3 nm respectively. […] Next, the qualifying curves were filled globally and the kinetic parameters kobs, kon, koff and KD were calculated along with their errors. The errors were inspected to be less than […] of its calculated value. Finally, the theoretical shift at equilibrium from the qualifying curves were filled on a steady state plot, and the KD and Rmax (theoretical maximum binding capacity in nm) were calculated from that curve. The kinetic parameters of exemplary generated binders (having sequences set forth in SEQ ID NO: 75-SEQ ID NO: 82) with their respective targets (indicated as P1 residue of immobilized peptides) are shown in Table 16.

[4] = 1 μM hCAII, 500 μM pNP-OAc, 10 minutes at 37° C., pNP release over 180 s

Molecule: Nc1cc(S(N)(=O)=O)ccc1C(=O)O [2-NH2, 2-Amino-4-sulfamoylbenzoic acid]
Fold Enhancement (NTM IC50) [1]: 0.3

Molecule: C[C@H](NC(=O)c1ccc(S(N)(=O)=O)cc1)C(=O)N[C@@H](C)C(=O)N[C@@H](C)C(=O)N[C@@H](C)C(=O)N[C@@H](CCC(=O)O)C(N)=O [(SAB)AAAAE] ({Benzoyl(4-SO2NH2)}-AAAAE-NH2)
IC50 ([2]; SABA-P1-P2 groups): 48 nM

Molecule: C[C@H](NC(=O)c1ccc(S(N)(=O)=O)cc1)C(=O)N[C@@H](Cc1ccccc1)C(=O)N[C@@H](C)C(=O)N[C@@H](C)C(=O)N[C@@H](CCC(=O)O)C(N)=O [(SAB)AFAAE] ({Benzoyl(4-SO2NH2)}-AFAAE-NH2)
IC50 [2, 4]: 183 nM
IC50 ([2]; SABA-P1-P2 groups): 183 nM

Molecule: C[C@H](NC(=O)[C@H](C)NC(=O)[C@H](Cc1ccccc1)NC(=O)c1ccc(S(N)(=O)=O)cc1)C(=O)N[C@@H](C)C(=O)N[C@@H](CCC(=O)O)C(N)=O [(SAB)FAAAE] ({Benzoyl(4-SO2NH2)}-FAAAE-NH2)
IC50 [2, 4]: 45 nM
IC50 ([2]; SABA-P1-P2 groups): 45 nM

Molecule: NS(=O)(=O)c1ccc(C(=O)O)cn1 [M65, 6-Sulfamoylpyridine-3-carboxylic acid]
Fold Enhancement (NTM IC50) [1]: 2.2
Fold Enhancement (NTM-AAEIR IC50) [1]: 0.3

Molecule: NS(=O)(=O)c1ccc(C(=O)O)nc1 [M66]
IC50 ([1]; free NTM, 300 nM wild-type carbonic anhydrase, 1 mM pNPA, 25° C.): 992 nM
Fold Enhancement (NTM IC50) [1]: 0.5

Molecule: NS(=O)(=O)c1ccc(C(=O)O)c([N+](=O)[O-])c1 [M67, 2Nitro-4-sulfamoylbenzoic acid]
Fold Enhancement (NTM IC50) [1]: 3.8
Fold Enhancement (NTM-AAEIR IC50) [1]: 2.0

Molecule: Cc1cc(S(N)(=O)=O)ccc1C(=O)O [M74, 2-methyl-4 sulfamoylbenzoic acid]
Fold Enhancement (NTM IC50) [1]: 0.2

Molecule: NS(=O)(=O)c1ccc(C(=O)O)c(Cl)c1 [M76, 2-Chloro-4-sulfamoylbenzoic acid]
Fold Enhancement (NTM IC50) [1]: 2.6
Fold Enhancement (NTM-AAEIR IC50) [1]: 1.9

Molecule: NS(=O)(=O)c1ccc(C(=O)O)cc1F [M88, 3-Fluoro-4-sulfamoylbenzoic acid]
Fold Enhancement (NTM IC50) [1]: 4.3
Fold Enhancement (NTM-AAEIR IC50) [1]: 1.6

B1: 75 (protein)
chain: EWGYASHNGPDHWHELFPNAKGENQSPIELHTKDIRHDPSLQPWSVSYDGGSAKTILNNGKTLGVVFDDTYDRSMLRGGPLPGPYRLREFHLHWGSSDDHGSEHTVDGVKYAAELHLLHWNPKYNTFKEALKQRDGLAVIGIFLKIGHENGEFQIFLDALDKIKTKGKEAPFTKFDPSSLFPASRDYWTYQGSMTIPPLMEAVVWLLLKEPMTVSSDQMAKLRSLLSSAENEPPVPLVSNWRPPQPINNRVVRASFK
modifications: Synthetic binder, S279_0004
Kd ([3]; P1 = T): 488 nM
koff ([3]; P1 = T): 0.0111 s⁻¹
kon ([3]; P1 = T): 23300 M⁻¹ s⁻¹
Kd ([3]; P1 = V): 20 nM
koff ([3]; P1 = V): 0.000473 s⁻¹
kon ([3]; P1 = V): 23700 M⁻¹ s⁻¹

The next lines start with the values.

Fold Enhancement (NTM IC50) [1]: 0.0
Molecule: COc1cc(S(N)(=O)=O)ccc1C(=O)O [M73, 2-Methoxy-4-sulfarnoylbenzoic acid]

Fold Enhancement (NTM IC50) [1]: 2.1
Fold Enhancement (NTM-AAEIR IC50) [1]: 2.2
Molecule: NS(=O)(=O)c1ccc(C(=O)O)c(F)c1 [M75, 2-Fluoro-4-sulfamoylbenzoic acid]

Reference: US12467928B2, “N-terminal modifier agents and binders for treating and analyzing peptides” (Encodia, Inc., priority 2023, dated 2025)
